Key:
[1] = Cmax in human neonate at 10 mg/kg, iv by HPLC; assay type: ADME, organism-based; design: dose 10 mg/kg, route intravenous; conditions: in vivo
[2] = Cmax in human neonate serum after 25 hrs by fluorescence polarization immunoassay; assay type: ADME, organism-based
[3] = Cmin in human neonate serum after 25 hrs by fluorescence polarization immunoassay; assay type: ADME; conditions: read-out: Cmin
[4] = Drug uptake in human neonate CSF after 25 hrs by HPLC; assay type: ADME, organism-based, Cerebrospinal fluid
[5] = Drug uptake in human adult CSF at 75 mg, im up to 8.5 hrs by HPLC; assay type: ADME, organism-based, Cerebrospinal fluid; design: dose 75 mg, route intramuscular

Cmax [1]: < 200 ng/mL
Cmax [2]: 35700 ng/mL
concentration at 25 h [3]: 3800 ng/mL
Cmax [4]: 1080 ng/mL
Cmax [5]: < 500 ng/mL
Structure (SMILES): NCC[C@H](O)C(=O)N[C@@H]1C[C@H](N)[C@@H](O[C@H]2O[C@H](CN)[C@@H](O)[C@H](O)[C@H]2O)[C@H](O)[C@H]1O[C@H]1O[C@H](CO)[C@@H](O)[C@H](N)[C@H]1O [AMIKACIN]
